According to PMC7377239, “Cardiovascular Effects of Polychlorinated Biphenyls and Their Major Metabolites” (Environmental Health Perspectives, 2020):
Read-outs that look alike come from different tables or passages of the source.

Legend:
[1] = tested on: HUVECs; assay: Tube formation (tubulogenesis) assay in HUVECs, 18 h; format: cell-based, human; details: Homo sapiens, HUVEC, 18 h; for activity at 0.1 µM: 0.10 µM
Method in brief: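 HUVECs (passage 1–5) seeded on reduced-growth-factor basement membrane and exposed to compounds overnight at 37°C, 5% CO2, in 2× maintenance medium with 12.5 ng/mL VEGF; 0.5% DMSO vehicle. Calcein AM-stained tube networks imaged and analysed; vehicle-normalized readouts fit to four-parameter logistic, POD set at one SD of vehicle means.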

[2] = tested on: iCell endothelial cells (human iPSC-derived ECs); assay: High-content imaging cytotoxicity in iCell endothelial cells, 24 h; format: cell-based; details: for viability at 0.01 µM / activity at 0.01 µM / viability at 0.1 µM / activity at 0.1 µM / viability at 1 µM / activity at 1 µM / viability at 10 µM / activity at 10 µM / viability at 100 µM / activity at 100 µM / minimal effective concentration: Homo sapiens, Endothelial cell, 24 hr; for viability at 0.1 µM / activity at 0.1 µM: 0.10 µM
Method in brief: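 Human iPSC-derived endothelial cells (passages 1–5) were grown to a fibronectin-coated monolayer, then exposed 24 h at 37 °C with 0.5% DMSO vehicle. Staining was Hoechst 33342, MitoTracker Orange and calcein AM, read by high-content imaging. Point of departure came from 4-parameter logistic fits, with a 1-SD vehicle cutoff and 100 µM as the top concentration.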

[3] = HUVECs, 0.00 µM = 100.00, read-out: huvec.mtl.18hr
[4] = HUVECs, 0.00 µM = 100.00, read-out: huvec.tlps.18hr
[5] = HUVECs, 0.00 µM = 100.00, read-out: huvec.tta.18hr
[6] = HUVECs, 0.00 µM = 100.00, read-out: huvec.ttl.18hr
[7] = iPSC-EC, 0.00 µM control = 100.00, read-out: endo.cyto.24hr
[8] = iPSC-EC, 0.00 µM control = 100.00, read-out: endo.mito.24hr
[9] = iPSC-EC, 0.00 µM control = 100.00, read-out: endo.mitoint.24hr
[10] = iPSC-EC, 0.00 µM control = 100.00, read-out: endo.nma.24hr
[11] = iPSC-EC, 0.00 µM control = 100.00, read-out: endo.tc.24hrs

## Oc1ccccc1-c1ccc(Cl)cc1 [2'-OH PCB3]
[1]; [3]
  activity at 0.01 µM: 96%
  activity at 0.1 µM: 77.3%
  activity at 1 µM: 95.4%
  activity at 10 µM: 92.4%
  activity at 100 µM: 73.9%
[1]; [4]
  activity at 0.01 µM: 85.8%
  activity at 0.1 µM: 49.3%
  activity at 1 µM: 65%
  activity at 10 µM: 77.5%
  activity at 100 µM: 35.5%
[1]; [5]
  activity at 0.01 µM: 84%
  activity at 0.1 µM: 42.9%
  activity at 1 µM: 71.9%
  activity at 10 µM: 65.8%
  activity at 100 µM: 64%
[1]; [6]
  activity at 0.01 µM: 89.1%
  activity at 0.1 µM: 47.4%
  activity at 1 µM: 75%
  activity at 10 µM: 69.6%
  activity at 100 µM: 49.6%
[1]; HUVECs, top concentration 100.00 µM, read-out: huvec.mtl.18hr POD
  minimal effective concentration: 100 µM
[1]; HUVECs, top concentration 100.00 µM, read-out: huvec.tlps.18hr POD
  minimal effective concentration: 0.57 µM
[1]; HUVECs, top concentration 100.00 µM, read-out: huvec.tta.18hr POD
  minimal effective concentration: 100 µM
[1]; HUVECs, top concentration 100.00 µM, read-out: huvec.ttl.18hr POD
  minimal effective concentration: 100 µM
[2]; [7]
  viability at 0.01 µM: 99.2%
  viability at 0.1 µM: 96.5%
  viability at 1 µM: 100%
  viability at 10 µM: 103%
  viability at 100 µM: 57.8%
[2]; [8]
  activity at 0.01 µM: 99.4%
  activity at 0.1 µM: 97%
  activity at 1 µM: 100%
  activity at 10 µM: 103%
  activity at 100 µM: 61.3%
[2]; [9]
  activity at 0.01 µM: 117%
  activity at 0.1 µM: 101%
  activity at 1 µM: 108%
  activity at 10 µM: 124%
  activity at 100 µM: 87.3%
[2]; [10]
  activity at 0.01 µM: 98.3%
  activity at 0.1 µM: 98.8%
  activity at 1 µM: 96.4%
  activity at 10 µM: 97%
  activity at 100 µM: 89.5%
[2]; [11]
  viability at 0.01 µM: 99.2%
  viability at 0.1 µM: 96.5%
  viability at 1 µM: 100%
  viability at 10 µM: 103%
  viability at 100 µM: 87%
[2]; iPSC-EC, top concentration 100.00 µM, read-out: endo.cyto.24hr POD
  minimal effective concentration: 44.3 µM
[2]; iPSC-EC, top concentration 100.00 µM, read-out: endo.mito.24hr POD
  minimal effective concentration: 44.3 µM
[2]; iPSC-EC, top concentration 100.00 µM, read-out: endo.mitoint.24hr POD
  minimal effective concentration: 100 µM
[2]; iPSC-EC, top concentration 100.00 µM, read-out: endo.nma.24hr POD
  minimal effective concentration: 1.82 µM
[2]; iPSC-EC, top concentration 100.00 µM, read-out: endo.tc.24hrs POD
  minimal effective concentration: 68.2 µM

## Clc1ccc(-c2ccccc2)cc1 [PCB 3, 4-chlorobiphenyl]
[1]; tube formation mtl, read-out: POD huvec.mtl.18hr
  minimal effective concentration: 25.3 µM
[1]; tube formation tlps, read-out: POD huvec.tlps.18hr
  minimal effective concentration: 100 µM
[1]; tube formation tta, read-out: POD huvec.tta.18hr
  minimal effective concentration: 0.67 µM
[1]; tube formation ttl, read-out: POD huvec.ttl.18hr
  minimal effective concentration: 0.7 µM
[2]; endothelial cells (endo), cyto, read-out: POD endo.cyto.24hr
  minimal effective concentration: 100 µM
[2]; endothelial cells (endo), mito, read-out: POD endo.mito.24hr
  minimal effective concentration: 100 µM
[2]; endothelial cells (endo), mitoint, read-out: POD endo.mitoint.24hr
  minimal effective concentration: 100 µM
[2]; endothelial cells (endo), nma, read-out: POD endo.nma.24hr
  minimal effective concentration: 100 µM
[2]; endothelial cells (endo), tc, read-out: POD endo.tc.24hr
  minimal effective concentration: 100 µM
[2]; iPSC-ECs, 0.01-100 μM
  effect on cell viability in iPSC-ECs: did not affect cell viability
